# Data: ChEMBL document CHEMBL1147986, “Minimum structure requirement of immunomodulatory glycolipids for predominant Th2 cytokine induction and the discovery of non-linear phytosphingosine analogs” (2007)
# Assays:
# [1] = Induction of IFN gamma secretion in C57BL/6 mouse spleen cells at 100 ng/ml after 72 hrs relative to OCH; format: functional
# [2] = Induction of IL4 secretion in C57BL/6 mouse spleen cells at 100 ng/ml after 72 hrs relative to OCH; format: functional
SMILES,Activity [1] [%],Activity [2] [%]
CCCCCCCCCCCCCCCCCCCCCCC(=O)N[C@@H](CO[C@H]1O[C@H](CO)[C@H](O)[C@H](O)[C@H]1O)[C@H](O)[C@H](O)CCCCC,93,103
CCCCCCCCCCCCCCCCCCCCCCCCC(=O)N[C@@H](CO[C@H]1O[C@H](CO)[C@H](O)[C@H](O)[C@H]1O)[C@H](O)[C@@H](O)CCCCC,103,154
CCCCCCCCCCCCCCCCCCCCCCCC(=O)N[C@@H](CO[C@H]1O[C@H](CCl)[C@H](O)[C@H](O)[C@H]1O)[C@H](O)[C@H](O)Cc1ccccc1,284,211
CCCCCCCCCCCCCCCCCCCCCCCC(=O)N[C@@H](CO[C@H]1O[C@H](CO)[C@H](O)[C@H](O)[C@H]1O)[C@H](O)[C@H](O)CCCC,112,115
CCCCCCCCCCCCCCCCCCCCCCCC(=O)N[C@@H](CO[C@H]1O[C@H](CO)[C@H](O)[C@H](O)[C@H]1O)[C@H](O)[C@H](O)CCC,96,105
CCCCCCCCCCCCCCCCCCCCCCCCCC(=O)N[C@@H](CO[C@H]1O[C@H](CO)[C@H](O)[C@H](O)[C@H]1O)[C@H](O)[C@H](O)CCCCCCCCCCCCCC [RGI-7000],569,128
CCCCCCCCCCCCCCCCCCCCCCCCCCCC(=O)N[C@@H](CO[C@H]1O[C@H](CO)[C@H](O)[C@H](O)[C@H]1O)[C@H](O)[C@H](O)CCCCC,761,178
CCCCCCCCCCCCCCCCCCCCCCCC(=O)N[C@@H](CO[C@H]1O[C@H](CO)[C@H](O)[C@H](O)[C@H]1O)[C@H](O)[C@H](O)CC,81,102
CCCCCCCCCCCCCCCCCCCCCCCC(=O)N[C@@H](CO[C@H]1O[C@H](CO)[C@H](O)[C@H](O)[C@H]1O)[C@H](O)[C@H](O)CCCCC,100,100
CCCCCCCCCCCCCCCCCCCCCCCC(=O)N[C@@H](CO[C@H]1O[C@H](CCl)[C@H](O)[C@H](O)[C@H]1O)[C@H](O)[C@H](O)CC1CCCC1,74,98
CCCCCCCCCCCCCCCCCCCC(=O)N[C@@H](CO[C@H]1O[C@H](CO)[C@H](O)[C@H](O)[C@H]1O)[C@H](O)[C@H](O)CCCCC,9,6
CCCCCCCCCCCCCCCCCCCCCC(=O)N[C@@H](CO[C@H]1O[C@H](CO)[C@H](O)[C@H](O)[C@H]1O)[C@H](O)[C@H](O)CCCCC,46,51
CCCCCCCCCCCCCCCCCCCCCCCCCC(=O)N[C@@H](CO[C@H]1O[C@H](CO)[C@H](O)[C@H](O)[C@H]1O)[C@H](O)[C@H](O)CCCCC,504,129
